Target: T1, rat T1 R1/T1 R3 umami taste receptor (Rattus norvegicus, UniProt Q923K1+Q9Z0R8)
T1 construct: expressed in transfected cells; host or cells: HEK-293, transient transfection, pEAK10 expression vector
T1 sequence (Q9Z0R8 20-840): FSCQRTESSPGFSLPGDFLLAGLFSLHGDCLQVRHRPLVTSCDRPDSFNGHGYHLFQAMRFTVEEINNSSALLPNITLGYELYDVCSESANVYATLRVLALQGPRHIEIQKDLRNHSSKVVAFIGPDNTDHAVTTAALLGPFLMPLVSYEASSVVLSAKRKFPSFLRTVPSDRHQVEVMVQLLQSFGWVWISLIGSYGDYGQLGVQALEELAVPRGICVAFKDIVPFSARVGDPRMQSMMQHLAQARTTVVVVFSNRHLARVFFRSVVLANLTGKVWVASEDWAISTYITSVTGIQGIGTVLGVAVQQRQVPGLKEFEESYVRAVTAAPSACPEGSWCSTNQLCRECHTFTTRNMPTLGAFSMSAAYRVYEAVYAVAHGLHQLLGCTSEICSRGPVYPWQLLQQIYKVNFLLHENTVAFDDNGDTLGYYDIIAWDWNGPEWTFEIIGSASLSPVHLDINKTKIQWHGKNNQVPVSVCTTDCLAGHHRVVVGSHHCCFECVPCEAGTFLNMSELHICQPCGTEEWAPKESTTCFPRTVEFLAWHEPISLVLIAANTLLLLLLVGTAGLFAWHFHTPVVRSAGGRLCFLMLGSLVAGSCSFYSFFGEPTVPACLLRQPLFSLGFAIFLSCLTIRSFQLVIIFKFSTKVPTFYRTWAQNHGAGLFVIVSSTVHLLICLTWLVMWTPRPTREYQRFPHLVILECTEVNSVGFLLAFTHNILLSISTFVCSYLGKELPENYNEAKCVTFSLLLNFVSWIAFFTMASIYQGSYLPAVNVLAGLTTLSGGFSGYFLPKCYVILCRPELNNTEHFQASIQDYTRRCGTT
T1 sequence (Q923K1 21-858): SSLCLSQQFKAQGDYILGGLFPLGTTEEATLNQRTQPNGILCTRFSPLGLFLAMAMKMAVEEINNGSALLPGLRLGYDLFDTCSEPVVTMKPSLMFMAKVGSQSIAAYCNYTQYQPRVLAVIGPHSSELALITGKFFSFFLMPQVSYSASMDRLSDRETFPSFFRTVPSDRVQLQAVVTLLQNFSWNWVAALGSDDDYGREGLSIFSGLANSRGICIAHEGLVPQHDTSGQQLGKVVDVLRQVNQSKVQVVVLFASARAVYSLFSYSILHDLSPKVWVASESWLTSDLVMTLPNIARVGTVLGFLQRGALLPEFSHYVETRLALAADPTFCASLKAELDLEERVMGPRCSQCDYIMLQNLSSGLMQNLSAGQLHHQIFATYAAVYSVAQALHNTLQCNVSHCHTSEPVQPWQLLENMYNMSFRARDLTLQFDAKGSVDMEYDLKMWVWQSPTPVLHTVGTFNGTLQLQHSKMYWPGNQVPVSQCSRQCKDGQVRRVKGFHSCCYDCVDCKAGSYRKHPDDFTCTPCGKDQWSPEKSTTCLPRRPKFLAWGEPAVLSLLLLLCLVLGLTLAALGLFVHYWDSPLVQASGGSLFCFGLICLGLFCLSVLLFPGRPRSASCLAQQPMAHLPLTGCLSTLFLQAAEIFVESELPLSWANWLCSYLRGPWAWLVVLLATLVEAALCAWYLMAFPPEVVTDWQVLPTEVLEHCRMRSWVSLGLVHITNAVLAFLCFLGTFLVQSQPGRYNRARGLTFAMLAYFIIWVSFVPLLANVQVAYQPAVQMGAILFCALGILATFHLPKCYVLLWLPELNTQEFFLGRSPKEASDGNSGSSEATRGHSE
Test: Calcium imaging of HEK-293 cells transiently transfected with rat T1R1, T1R3 and Ga15 or Ga15/i1
Assay type: cell-based
Conditions: HEK-293 with rat T1R1, T1R3 and Ga15/i1; in the presence of 2.5 mM IMP
Text: Rat T1 R2 and T1 R3 expression constructs were generated using the pEAK10 expression vector (Edge Biosystems). (Rat T1 R1, T1 R2, and T1 R3 nucleic acid sequences are described in U.S. Provisional Application No. 60/339,472, incorporated by reference in its entirety herein). […] Calcium mobilization was monitored on an Axiovert S100 microscope equipped with an inverted 10X/0.5 LWID piano fluor objective (Zeiss) and a cooled CCID camera (Princeton Instruments). Fluorescence images were acquired at 480 nrn excitation and 535 nm emission, and analyzed with Imaging Workbench 4.0 software (Axon Instruments). T1 R receptor activity was quantitated by counting the number of responding cells 30 seconds after stimulus addition. […]

Row | SMILES | cell response (intracellular calcium) to umami taste stimuli
1 | N[C@@H](CC(=O)O)C(=O)O [L-aspartate] | responded
2 | N[C@@H](CCC(=O)O)C(=O)O [L-glutamate] | responded

— patent publication US20050033021A1, “Chimeric Gatiphal 15 variants and their use in the analysis and discovery of modulators of G-protein coupled receptors” (priority 2003, published 2005)
